The values below come from patent US8987207B2, “Peptides which have analgesic effects and which inhibit ASIC channels” (Centre National de la Recherche Scientifique—CNRS, priority 2010, dated 2015).

Bridges are numbered along the chain shown (N, C = ends). Where no end group is shown, it is not given here.

The target of data set [1] is T1, rat heteromeric ASIC1a+ASIC3 channels (Rattus norvegicus, UniProt O35240+P55926).
T1 sequence (P55926 1-526): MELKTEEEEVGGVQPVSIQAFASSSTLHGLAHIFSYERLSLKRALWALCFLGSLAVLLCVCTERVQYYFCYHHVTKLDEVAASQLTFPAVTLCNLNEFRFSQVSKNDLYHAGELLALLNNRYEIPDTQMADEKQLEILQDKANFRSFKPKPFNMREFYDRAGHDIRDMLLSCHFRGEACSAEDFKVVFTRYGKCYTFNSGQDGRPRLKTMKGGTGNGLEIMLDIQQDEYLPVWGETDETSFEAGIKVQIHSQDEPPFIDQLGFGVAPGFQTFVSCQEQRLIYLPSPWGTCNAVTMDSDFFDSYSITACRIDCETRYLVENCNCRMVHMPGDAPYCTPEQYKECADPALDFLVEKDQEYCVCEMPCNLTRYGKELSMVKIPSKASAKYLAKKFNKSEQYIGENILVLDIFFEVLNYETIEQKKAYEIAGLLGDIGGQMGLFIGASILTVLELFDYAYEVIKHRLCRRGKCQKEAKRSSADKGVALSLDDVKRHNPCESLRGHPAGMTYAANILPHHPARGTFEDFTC
T1 sequence (O35240 1-533): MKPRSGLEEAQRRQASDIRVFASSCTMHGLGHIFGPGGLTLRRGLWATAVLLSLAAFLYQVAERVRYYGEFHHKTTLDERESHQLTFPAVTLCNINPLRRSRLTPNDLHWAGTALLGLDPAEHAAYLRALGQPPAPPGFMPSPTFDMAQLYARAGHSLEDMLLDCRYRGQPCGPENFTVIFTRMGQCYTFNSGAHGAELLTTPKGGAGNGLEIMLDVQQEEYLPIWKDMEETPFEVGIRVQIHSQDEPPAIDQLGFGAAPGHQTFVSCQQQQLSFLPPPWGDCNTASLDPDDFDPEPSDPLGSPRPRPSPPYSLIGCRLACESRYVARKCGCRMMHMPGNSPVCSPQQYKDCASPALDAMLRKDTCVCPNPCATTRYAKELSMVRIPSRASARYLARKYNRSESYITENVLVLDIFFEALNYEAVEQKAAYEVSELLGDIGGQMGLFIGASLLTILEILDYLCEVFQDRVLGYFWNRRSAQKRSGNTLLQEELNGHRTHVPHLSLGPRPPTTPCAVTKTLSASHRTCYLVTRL
As to conditions: read-out: concentration inhibiting 50% of the current produced by rat heteromeric ASIC1a+ASIC3 channels; cited from earlier work.

The conditions of data set [2]: rats, cited from earlier work.
The nature of data set [3]: Toxicity after intrathecal injection. It counts as in vivo. The conditions noted are these: mice.
Data set [4] can be described thus: Accelerating rotarod test (motor activity) after intrathecal injection. The class given is in vivo. As to conditions: mice, IT injection, compared with vehicle, ANOVA. As to the method:
The effects of the ASICalgin-1 peptide on motor activity were evaluated by means of the accelerating rotarod test. The mice were placed on an axle rotating at four rotations per minute (rpm) which undergoes a constant acceleration of 5 rpm per minute up to 40 rpm. The latency to fall is measured, with a maximum limit of 300 s.
In general terms: The rotarod test checks motor coordination on a turning rod.

Data set [5] is described as follows: Toxicity after intracerebroventricular injection. The conditions noted are these: mice, ICV injection, even after 3 days. The class given is in vivo. How it is done: The intracerebroventricular (ICV) injection of the ASICalgin-1 peptide was carried out in the third ventricle of the brain of mice (C57B16J, 7- to 11-week-old males) anesthetized with isoflurane (1.5%) using the following stereotaxic coordinates: −2.4 mm under the cortical surface, −0.5 mm in the anterior-posterior axis and +1.6 mm in the mediolateral axis relative to the bregma. The effects of an ICV injection of 5 μl of solution containing […] of ASICalgin-1 (0.34 nmol) were compared with the effects of 5 μl of saline solution vehicle (145 mM NaCl, 5 mM KCl, 2 mM CaCl2, 10 mM HEPES, pH 7.4, 0.05% bovine serum albumin) naxolone, an inhibitor of opioid receptors (especially μ-type), was injected subcutaneously at 2 mg/kg in 50 μl of 0.9% NaCl, ten minutes before the ICV injection of the ASICalgin-1 peptide.

For data set [6], the target named is T2, homomeric ASIC1a channels (Homo sapiens, UniProt P78348).
T2 sequence (P78348 1-528): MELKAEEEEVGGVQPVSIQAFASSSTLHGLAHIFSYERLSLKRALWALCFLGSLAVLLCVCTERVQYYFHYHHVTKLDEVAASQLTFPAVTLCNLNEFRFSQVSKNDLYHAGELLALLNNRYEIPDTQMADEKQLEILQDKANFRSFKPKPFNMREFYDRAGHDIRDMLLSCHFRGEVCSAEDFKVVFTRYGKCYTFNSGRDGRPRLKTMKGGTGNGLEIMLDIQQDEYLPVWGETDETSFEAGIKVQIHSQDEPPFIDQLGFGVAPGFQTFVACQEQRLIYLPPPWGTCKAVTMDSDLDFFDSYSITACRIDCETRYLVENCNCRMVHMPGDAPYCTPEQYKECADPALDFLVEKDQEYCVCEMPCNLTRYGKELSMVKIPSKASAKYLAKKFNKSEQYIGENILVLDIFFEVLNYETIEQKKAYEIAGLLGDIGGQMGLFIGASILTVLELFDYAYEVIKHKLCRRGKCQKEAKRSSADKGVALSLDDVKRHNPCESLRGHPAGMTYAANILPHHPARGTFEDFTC
The conditions noted are these: read-out: concentration inhibiting 50% of the current produced by homomeric ASIC1a channels; cited from earlier work.

The conditions of data set [7]: mice, central injection; cited from earlier work.

Consider APETx2, for which, in data set [1], the IC50 is 2000 nM. Further, the “analgesic effect on post-operative pain” value in data set [2] (intra-operative application) is “induces an analgesic effect”. Also, the “analgesic effect on inflammatory and acidic pain” value in data set [2] (peripheral (subcutaneous) injection) was “induces an analgesic effect”.
As for “LKCFQHGKVVTCHRDMKFCYHNTGMPFRNLKLILQGCSSSCSETENNKCCSTDRCNK (disulfide 3-19, 12-37, 41-49, 50-55) [ASICalgin-2]”, the “toxicity: behavior (motor, balance, apathy, paralysis, convulsion), deaths” value in data set [3] is listed as “induces no modification of behavior”.
Turning to “LKCYQHGKVVTCHRDMKFCYHNTGMPFRNLKLILQGCSSSCSETENNKCCSTDRCNK (disulfide 3-19, 12-37, 41-49, 50-55) [ASICalgin-1]”, the “effect on motor activity, latency to fall” value in data set [4] is on record as “does not induce any significant effect”. The “toxicity: behavior (motor, balance, apathy, paralysis, convulsion), deaths” value in data set [3] and in data set [5] was “induces no modification of behavior” each time.
PcTx1: the IC50 in data set [6] is 1 nM. For the same substance, in data set [7], the analgesic effect result is reported as “powerful analgesic effect”.
